Assay results reported in patent publication US20250122222A1, “HETEROCYCLIC COMPOUNDS AND METHODS OF USE” (AMGEN INC., priority 2021, published 2025).
Read-outs that look alike come from different tables or passages of the source.

How the values were obtained:
[1] = tested on: Phosphorylation of ERK1/2 in AsPC-1 cells; assay: Phospho-ERK1/2 MSD assay; format: cell-based
Method: Sixteen hours prior to compound treatment, AsPC-1 cells were seeded in 96-well cell culture plates at a density of 25,000 cells/well and incubated at 37° C., 5% CO2. A compound dose-response titration was diluted in growth media, added to appropriate wells of a cell culture plate, and then incubated at 37° C., 5% CO2 for 2 hours.

[2] = molecular target: His-tagged KRAS G12D protein (Homo sapiens, UniProt P01116, G12D); assay: KRAS G12D TR-FRET assay (binding); details: biotinylated KRPep-2d substrate, GDP in assay buffer
Method: The plate was incubated for 30 minutes at room temperature. Biotinylated KRPep-2d substrate (Amgen) was diluted to 20 nM in Assay Buffer and 2 L was added to all wells and incubated for 1 hour at room temperature. Detection Reagent (0.4 nM LANCE Eu-W1024 Anti-6xHis (Perkin Elmer AD0401), 5 nM streptavidin-d^2 (Cisbio 610SADLA)) was prepared in Assay Buffer, then 4 μL was added to the plate and incubated for 1 hour at room temperature.

[3] = Homo sapiens, ASPC1, read-out: 2 h p-ERK (AsPC-1 cells), IC50 (μM), 2 hours compound treatment

Chain of His-tagged KRAS G12D protein (P01116 1-188 isoform P01116-2 G12D): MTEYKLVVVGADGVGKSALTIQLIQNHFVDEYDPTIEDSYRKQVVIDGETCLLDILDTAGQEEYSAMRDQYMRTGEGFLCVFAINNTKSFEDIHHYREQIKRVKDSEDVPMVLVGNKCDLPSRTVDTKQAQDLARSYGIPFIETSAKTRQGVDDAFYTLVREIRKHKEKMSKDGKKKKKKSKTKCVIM

Row | Structure (SMILES) | IC50 [1, 3] | IC50 [2] | IC50 ([1]; read-out: 2 h p-ERK (AsPC-1 cells), IC50, 2 hours compound treatment)
1 | C#CC1(O)COCCN(c2nc(OC[C@@]34CCCN3C[C@H](F)C4)nc3c(F)c(-c4cc(O)cc5ccc(F)c(CC)c45)ncc23)C1 (stereo partly drawn) [Example 70, 4-(7-(8-ethyl-7-fluoro-3-hydroxynaphthalen-1-yl)-8-fluoro-2-(((2R,7aS)-2-fluorotetrahydro-1H-pyrrolizin-7a(5H)-yl)methoxy)pyrido[4,3-d]pyrimidin-4-yl)-6-ethynyl-1,4-oxazepan-6-ol] | 0.643 µM | 1 nM | –
2 | CCc1c(F)ccc2cc(O)cc(-c3ncc4c(N5CCOCC(O)(CC)C5)nc(OC[C@@]56CCCN5C[C@H](F)C6)nc4c3F)c12 (stereo partly drawn) [Example 73, 6-Ethyl-4-(7-(8-ethyl-7-fluoro-3-hydroxynaphthalen-1-yl)-8-fluoro-2-(((2R,7aS)-2-fluorotetrahydro-1H-pyrrolizin-7a(5H)-yl)methoxy)pyrido[4,3-d]pyrimidin-4-yl)-1,4-oxazepan-6-ol] | 0.063 µM | 3 nM | –
3 | CCc1c(F)ccc2cc(O)cc(-c3ncc4c(N5CCOCC(O)(C6CC6)C5)nc(OC[C@@]56CCCN5C[C@H](F)C6)nc4c3F)c12 (stereo partly drawn) [Example 74, 6-Cyclopropyl-4-(7-(8-ethyl-7-fluoro-3-hydroxynaphthalen-1-yl)-8-fluoro-2-(((2R,7aS)-2-fluorotetrahydro-1H-pyrrolizin-7a(5H)-yl)methoxy)pyrido[4,3-d]pyrimidin-4-yl)-1,4-oxazepan-6-ol] | 0.436 µM | 4 nM | –
4 | CCc1c(F)ccc2cc(O)cc(-c3ncc4c(N5CCOC(C(N)=O)C5)nc(OC[C@@]56CCCN5C[C@H](F)C6)nc4c3F)c12 (stereo partly drawn) [Example 76, 4-(7-(8-Ethyl-7-fluoro-3-hydroxynaphthalen-1-yl)-8-fluoro-2-(((2R,7aS)-2-fluorotetrahydro-1H-pyrrolizin-7a(5H)-yl)methoxy)pyrido[4,3-d]pyrimidin-4-yl)morpholine-2-carboxamide] | 3.33 µM | 6 nM | –
5 | CCc1cccc2cc(O)cc(-c3ncc4c(N5CCOC[C@@](C)(O)C5)nc(OC[C@@]56CCCN5C[C@H](F)C6)nc4c3F)c12 [Example 78, (S)-4-(7-(8-Ethyl-3-hydroxynaphthalen-1-yl)-8-fluoro-2-(((2R,7aS)-2-fluorotetrahydro-1H-pyrrolizin-7a(5H)-yl)methoxy)pyrido [4,3-d]pyrimidin-4-yl)-6-methyl-1,4-oxazepan-6-ol] | 0.013 µM | 1 nM | –
6 | CCc1c(F)ccc2cc(O)cc(-c3ncc4c(N5CCOC[C@](O)(CC)C5)nc(OC[C@@]56CCCN5C[C@H](F)C6)nc4c3F)c12 [Example 79, (S)-6-Ethyl-4-(7-(8-ethyl-7-fluoro-3-hydroxynaphthalen-1-yl)-8-fluoro-2-(((2R,7aS)-2-fluorotetrahydro-1H-pyrrolizin-7a(5H)-yl)methoxy)pyrido [4,3-d]pyrimidin-4-yl)-1,4-oxazepan-6-o1] | – | 1 nM | 0.024 µM
